These results are taken from US20260062412A1, “NITROGEN-CONTAINING HETEROCYCLIC COMPOUND HAVING MYT1 INHIBITORY ACTIVITY” (CHUGAI SEIYAKU KABUSHIKI KAISHA, priority 2023, published 2026).

Each structure is given as a SMILES string. Where a name gives a salt, the structure may show the parent alone.

The target of this assay is MYT1 protein (Homo sapiens (Human), UniProt Q99640). The assay is described as follows: Test for binding to ATP binding site of MYT1 (Kinase Tracer 178 / Eu-Anti-GST antibody TR-FRET). Particulars: ATP binding site of MYT1, 30 minutes at room temperature. In general terms: In TR-FRET formats the signal depends on donor and acceptor labels being close together.
Sequence of MYT1 protein (Q99640 whole entry): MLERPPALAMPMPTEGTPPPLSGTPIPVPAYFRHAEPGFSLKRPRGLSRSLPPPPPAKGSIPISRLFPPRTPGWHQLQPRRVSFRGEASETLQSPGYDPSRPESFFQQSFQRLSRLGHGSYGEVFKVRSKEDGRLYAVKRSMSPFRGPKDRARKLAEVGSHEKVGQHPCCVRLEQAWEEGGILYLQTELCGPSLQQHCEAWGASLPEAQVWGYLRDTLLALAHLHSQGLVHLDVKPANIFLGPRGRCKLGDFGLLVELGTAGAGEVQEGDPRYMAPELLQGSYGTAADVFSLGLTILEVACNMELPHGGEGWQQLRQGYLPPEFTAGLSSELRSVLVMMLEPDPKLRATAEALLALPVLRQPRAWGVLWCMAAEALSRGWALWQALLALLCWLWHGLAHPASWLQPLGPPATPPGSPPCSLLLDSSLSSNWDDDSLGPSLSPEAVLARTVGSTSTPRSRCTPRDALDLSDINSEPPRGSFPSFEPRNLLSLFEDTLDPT

Regarding `Nc1c(-c2ccc(F)c3[nH]ncc23)c2cc(C3CCNCC3)c3ncccc3c2[nH]c1=O` [Compound C133, 3-Amino-4-(7-fluoro-1H-indazol-4-yl)-6-piperidin-4-yl-1H-1,7-phenanthrolin-2-one; hydrochloride], the IC50 (as a rule, the midpoint of a concentration-inhibition curve) came out at 1.7 nM.
For `CC[C@H](C)Oc1cc2c(-c3ccc(F)c4[nH]ncc34)c(N)c(=O)[nH]c2c2nccnc12` [Compound G13, 8-Amino-5-[(2S)-butan-2-yl]oxy-7-(7-fluoro-1H-indazol-4-yl)-10H-pyrido[2,3-f]quinoxalin-9-one] the value was 0.49 nM; for `CC(=O)Nc1cc2c(-c3ccc(F)c4[nH]ncc34)c(N)c(=O)[nH]c2c2ncccc12` [Compound D19, N-[8-amino-7-(7-fluoro-1H-indazol-4-yl)-9-oxo-10H-1,10-phenanthrolin-5-yl]acetamide], 22 nM; for `CC(C)(C)OC(=O)N1CCC(c2cc3c(-c4ccc(F)c5[nH]ncc45)c(N)c(=O)[nH]c3c3cccnc23)CC1` [Compound C99, tert-Butyl 4-[3-amino-4-(7-fluoro-1H-indazol-4-yl)-2-oxo-1H-1,7-phenanthrolin-6-yl]piperidine-1-carboxylate], 21 nM.
The compound `Nc1c(-c2ccc(F)c3[nH]ncc23)c2cc(O[C@H]3CCCOC3)c3ncccc3c2[nH]c1=O` [Compound C51, 3-Amino-4-(7-fluoro-1H-indazol-4-yl)-6-[(3S)-oxan-3-yl]oxy-1H-1,7-phenanthrolin-2-one] returned an IC50 of 1.7 nM.
For `Nc1c(-c2ccc(F)c3[nH]ncc23)c2cc(N3CCN(CC(F)F)CC3)c3cccnc3c2[nH]c1=O` [Compound D14, 3-Amino-6-[4-(2,2-difluoroethyl)piperazin-1-yl]-4-(7-fluoro-1H-indazol-4-yl)-1H-1,10-phenanthrolin-2-one] the value was 33 nM; for `CC(C)c1cc2c(-c3ccc(F)c4[nH]ncc34)c(N)c(=O)[nH]c2c2cccnc12` [Compound C104, 3-Amino-4-(7-fluoro-1H-indazol-4-yl)-6-propan-2-yl-1H-1,7-phenanthrolin-2-one], 3.4 nM; for `Nc1c(-c2ccc(F)c3[nH]ncc23)c2cnc3ccccc3c2[nH]c1=O` [Compound R1, 3-Amino-4-(7-fluoro-1H-indazol-4-yl)-1H-benzo[h][1,6]naphthyridin-2-one], 3.4 nM.
For `Cn1ncc2c(Br)cc3c(-c4ccc(F)c5[nH]ncc45)c(N)c(=O)[nH]c3c21` [Compound I1, 7-Amino-4-bromo-6-(7-fluoro-1H-indazol-4-yl)-1-methyl-9H-pyrazolo[4,3-h]quinolin-8-one], the IC50 is 33 nM.
In the case of `Nc1c(-c2ccc(Cl)c3[nH]ncc23)c2ccc(Cl)cc2[nH]c1=O` [Compound A40, 3-Amino-7-chloro-4-(7-chloro-1H-indazol-4-yl)-1H-quinolin-2-one], the half-inhibitory concentration (IC50) came to 8.6 nM.
As for `CC#Cc1cc2c(-c3ccc(F)c4[nH]ncc34)c(N)c(=O)[nH]c2c2ccccc12` [Compound B28, 3-Amino-4-(7-fluoro-1H-indazol-4-yl)-6-prop-1-inyl-1H-benzo[h]quinolin-2-one], the figure is 22 nM; as for `Nc1c(-c2ccc(F)c3[nH]ncc23)c2cc(N3CCC(N4CCCC4)CC3)c3ncccc3c2[nH]c1=O` [Compound C119, 3-Amino-4-(7-fluoro-1H-indazol-4-yl)-6-(4-pyrrolidin-1-ylpiperidin-1-yl)-1H-1,7-phenanthrolin-2-one], 2.2 nM.
As for `Cn1ncc2c(C3CC3)cc3c(-c4ccc(F)c5[nH]ncc45)c(N)c(=O)[nH]c3c21` [Compound I3, 7-Amino-4-cyclopropyl-6-(7-fluoro-1H-indazol-4-yl)-1-methyl-9H-pyrazolo[4,3-h]quinolin-8-one], the figure is 8 nM; as for `N#C[C@H]1C[C@H](Oc2cc3c(-c4ccc(F)c5[nH]ncc45)c(N)c(=O)[nH]c3c3nccnc23)C1` [Compound G12, (1r,3r)-3-[[8-Amino-7-(7-fluoro-1H-indazol-4-yl)-9-oxo-10H-pyrido[2,3-f]quinoxalin-5-yl]oxy]cyclobutane-1-carbonitrile], 0.95 nM.
As for `N#Cc1cc2[nH]c(=O)c(N)c(-c3ccc(Cl)c4[nH]ncc34)c2cc1Cl` [Compound A29, 3-Amino-6-chloro-4-(7-chloro-1H-indazol-4-yl)-2-oxo-1H-quinoline-7-carbonitrile], the figure is 29 nM; as for `CCC(CC)c1cc2c(-c3ccc(F)c4[nH]ncc34)c(N)c(=O)[nH]c2c2cccnc12` [Compound C108, 3-Amino-4-(7-fluoro-1H-indazol-4-yl)-6-pentan-3-yl-1H-1,7-phenanthrolin-2-one], 37 nM.
Regarding `Nc1c(-c2ccc(Cl)c3[nH]ncc23)c2cc(Cl)cc(Cl)c2[nH]c1=O` [Compound A20, 3-Amino-6,8-dichloro-4-(7-chloro-1H-indazol-4-yl)-1H-quinolin-2-one], the IC50 came to 12 nM.
`Nc1c(-c2cc(F)c(F)c3[nH]ncc23)c2cc(OC(F)F)c3ncccc3c2[nH]c1=O` [Compound C205, 3-Amino-4-(6,7-difluoro-1H-indazol-4-yl)-6-(difluoromethoxy)-1H-1,7-phenanthrolin-2-one] returned an IC50 of 3.4 nM.
For `CC(C)(C)OC(=O)N1CC(c2cc3c(-c4ccc(F)c5[nH]ncc45)c(N)c(=O)[nH]c3c3cccnc23)C1` [Compound C97, tert-Butyl 3-[3-amino-4-(7-fluoro-1H-indazol-4-yl)-2-oxo-1H-1,7-phenanthrolin-6-yl]azetidine-1-carboxylate] the value was 22 nM.
For `Cc1cc2c(-c3ccc(F)c4[nH]ncc34)c(N)c(=O)[nH]c2c2cc(Cl)ccc12` [Compound B12, 3-Amino-9-chloro-4-(7-fluoro-1H-indazol-4-yl)-6-methyl-1H-benzo[h]quinolin-2-one] the value was 20 nM; for `Nc1c(-c2cc[nH]c(=O)c2)c2cc(Cl)ccc2[nH]c1=O` [Compound A68, 3-Amino-6-chloro-4-(2-oxo-1H-pyridin-4-yl)-1H-quinolin-2-one], 8000 nM.
As for `Nc1c(-c2ccc(F)c3[nH]ncc23)c2cc(C3CC3)c3cc(Cl)ccc3c2[nH]c1=O` [Compound B14, 3-Amino-8-chloro-6-cyclopropyl-4-(7-fluoro-1H-indazol-4-yl)-1H-benzo[h]quinolin-2-one], the figure is 18 nM; as for `N#C[C@H]1C[C@H](Oc2cc3c(-c4ccc(Cl)c5[nH]ncc45)c(N)c(=O)[nH]c3cc2F)C1` [Compound A5, (1r,3r)-3-[[3-Amino-4-(7-chloro-1H-indazol-4-yl)-7-fluoro-2-oxo-1H-quinolin-6-yl]oxy]cyclobutane-1-carbonitrile], 1.8 nM.
Turning to `COc1cccc(-c2c(N)c(=O)[nH]c3ccc(Cl)cc23)c1` [Compound A42, 3-Amino-6-chloro-4-(3-methoxyphenyl)-1H-quinolin-2-one], the IC50 turned out to be 450 nM.
For `COC1(COc2cc3c(-c4ccc(F)c5[nH]ncc45)c(N)c(=O)[nH]c3c3cccnc23)CC1` [Compound C53, 3-Amino-4-(7-fluoro-1H-indazol-4-yl)-6-[(1-methoxycyclopropyl)methoxy]-1H-1,7-phenanthrolin-2-one] the value was 4.2 nM; for `Cn1cnc2c3[nH]c(=O)c(N)c(-c4ccc(F)c5[nH]ncc45)c3cc(Br)c21` [Compound M1, 7-Amino-4-bromo-6-(7-fluoro-1H-indazol-4-yl)-3-methyl-9H-imidazo[4,5-h]quinolin-8-one], 10 nM.
As for `Cc1cc2c(-c3ccc(F)c4[nH]ncc34)c(N)c(=O)[nH]c2c2ccc(Cl)cc12` [Compound B15, 3-Amino-8-chloro-4-(7-fluoro-1H-indazol-4-yl)-6-methyl-1H-benzo[h]quinolin-2-one], the figure is 8.6 nM; as for `COc1cc2c(-c3ccc(Cl)c4[nH]ncc34)c(N)c(=O)[nH]c2c2cccnc12` [Compound C74, 3-Amino-4-(7-chloro-1H-indazol-4-yl)-6-methoxy-1H-1,7-phenanthrolin-2-one], 0.83 nM.
As for `Cc1cc2c(-c3ccc(F)c4[nH]ncc34)c(N)c(=O)[nH]c2c2ncccc12` [Compound D3, 3-Amino-4-(7-fluoro-1H-indazol-4-yl)-6-methyl-1H-1,10-phenanthrolin-2-one], the figure is 4.6 nM; as for `C=Cc1cc2c(-c3cc(F)c(F)c4[nH]ncc34)c(N)c(=O)[nH]c2c2cccnc12` [Compound C204, 3-Amino-4-(6,7-difluoro-1H-indazol-4-yl)-6-ethenyl-1H-1,7-phenanthrolin-2-one], 10 nM; as for `Nc1c(-c2ccc(F)c3[nH]ncc23)c2ccc3cccnc3c2[nH]c1=O` [Compound D4, 3-Amino-4-(7-fluoro-1H-indazol-4-yl)-1H-1,10-phenanthrolin-2-one], 15 nM.
In turn, `CC1(C)CC(c2cc3c(-c4ccc(F)c5[nH]ncc45)c(N)c(=O)[nH]c3c3cccnc23)C1` [Compound C167, 3-Amino-6-(3,3-dimethylcyclobutyl)-4-(7-fluoro-1H-indazol-4-yl)-1H-1,7-phenanthrolin-2-one] registered a 50% inhibitory concentration (IC50) of 46 nM.
For `Nc1c(-c2ccc(F)c3[nH]ncc23)c2cc(N3CCC(F)(F)C3)c3ncccc3c2[nH]c1=O` [Compound C115, 3-Amino-6-(3,3-difluoropyrrolidin-1-yl)-4-(7-fluoro-1H-indazol-4-yl)-1H-1,7-phenanthrolin-2-one] the value was 3.7 nM; for `Nc1c(-c2ccc(F)c3[nH]ncc23)c2cc(C3CNC3)c3ncccc3c2[nH]c1=O` [Compound C132, 3-Amino-6-(azetidin-3-yl)-4-(7-fluoro-1H-indazol-4-yl)-1H-1,7-phenanthrolin-2-one; formate], 11 nM.
The compound `Nc1c(-c2ccc(F)c3[nH]ncc23)c2cc(OC3CC(C(F)(F)F)C3)c3ncccc3c2[nH]c1=O` (stereo not drawn) [Compound C57, 3-Amino-4-(7-fluoro-1H-indazol-4-yl)-6-[3-(trifluoromethyl)cyclobutyl]oxy-1H-1,7-one] had a concentration for half-maximal inhibition (IC50) of 2.5 nM.
`Nc1c(-c2ccc(F)c3[nH]ncc23)c2cc(C3CC3)c3nccnc3c2[nH]c1=O` [Compound G4, 8-Amino-5-cyclopropyl-7-(7-fluoro-1H-indazol-4-yl)-10H-pyrido[2,3-f]quinoxalin-9-one] yielded an IC50 of 3.2 nM.
